According to the NIST ThermoML archive (doi:10.1016/j.jct.2017.03.029):
Where “and” joins values, the source holds several entries; their conditions need not be identical. Equal values may be shown once.

Details: Transpiration method

Cc1ccccc1[N+](=O)[O-] [2-nitrotoluene]
Liquid
Details | vapor or sublimation pressure
278.3 K | 0.00328 kPa
278.4 K | 0.0032 kPa
283.3 K | 0.00526 kPa and 0.00502 kPa
288.3 K | 0.00806 kPa and 0.00804 kPa
293.2 K | 0.0124 kPa and 0.0119 kPa
298.2 K | 0.0181 kPa and 0.0175 kPa
303.1 K | 0.0259 kPa
303.2 K | 0.0273 kPa
308.1 K | 0.0381 kPa
308.2 K | 0.0391 kPa
313.1 K | 0.0563 kPa and 0.0555 kPa
318 K | 0.0765 kPa
318.1 K | 0.081 kPa
323 K | 0.108 kPa

Cc1ccc([N+](=O)[O-])cc1 [1-methyl-4-nitrobenzene]
Details | vapor or sublimation pressure
278.2 K, Crystal | 0.00067 kPa
279.6 K, Crystal | 0.0008 kPa
283.3 K, Crystal | 0.00113 kPa
288.2 K, Crystal | 0.00211 kPa
288.3 K, Crystal | 0.00196 kPa
290.3 K, Crystal | 0.00271 kPa
292.2 K, Crystal | 0.00326 kPa
293.2 K, Crystal | 0.00332 kPa
296.8 K, Crystal | 0.00539 kPa
298.2 K, Crystal | 0.00566 kPa
298.3 K, Crystal | 0.00599 kPa
301.4 K, Crystal | 0.00833 kPa
303.2 K, Crystal | 0.00937 kPa
304.3 K, Crystal | 0.011 kPa
307.4 K, Crystal | 0.015 kPa
308.2 K, Crystal | 0.0151 kPa and 0.0149 kPa
310.3 K, Crystal | 0.0193 kPa
313.2 K, Crystal | 0.0252 kPa and 0.0239 kPa
314.3 K, Crystal | 0.0292 kPa
315.2 K, Crystal | 0.0309 kPa
315.7 K, Crystal | 0.033 kPa
316.2 K, Crystal | 0.0354 kPa
316.7 K, Crystal | 0.0359 kPa
317.2 K, Crystal | 0.0383 kPa
318.2 K, Crystal | 0.04 kPa and 0.0377 kPa
319.3 K, Crystal | 0.0438 kPa
320.3 K, Crystal | 0.0483 kPa
321.2 K, Crystal | 0.0523 kPa
322.2 K, Crystal | 0.0569 kPa
323.1 K, Crystal | 0.0544 kPa and 0.0572 kPa
323.3 K, Crystal | 0.0626 kPa
324.3 K, Crystal | 0.0673 kPa
326.2 K, Liquid | 0.0797 kPa
328.1 K, Liquid | 0.0862 kPa and 0.0853 kPa
329.2 K, Liquid | 0.097 kPa
332.2 K, Liquid | 0.1207 kPa and 0.1198 kPa
333 K, Liquid | 0.117 kPa and 0.113 kPa
335.3 K, Liquid | 0.1411 kPa
338 K, Liquid | 0.162 kPa and 0.155 kPa
338.2 K, Liquid | 0.168 kPa
341.2 K, Liquid | 0.1995 kPa
343 K, Liquid | 0.216 kPa and 0.21 kPa
344.4 K, Liquid | 0.2417 kPa
347.1 K, Liquid | 0.2802 kPa
347.9 K, Liquid | 0.274 kPa
348 K, Liquid | 0.29 kPa
350.2 K, Liquid | 0.3388 kPa
352.9 K, Liquid | 0.369 kPa
353 K, Liquid | 0.374 kPa
353.2 K, Liquid | 0.4024 kPa
357.9 K, Liquid | 0.483 kPa
358 K, Liquid | 0.504 kPa
362.9 K, Liquid | 0.622 kPa
363 K, Liquid | 0.66 kPa
367.9 K, Liquid | 0.841 kPa and 0.793 kPa

Cc1cccc([N+](=O)[O-])c1 [3-nitrotoluene]
Liquid
Details | vapor or sublimation pressure
290.6 K | 0.00648 kPa
293.3 K | 0.00842 kPa
296.3 K | 0.0103 kPa
298.2 K | 0.012 kPa
299.2 K | 0.0127 kPa and 0.0133 kPa
302.2 K | 0.0163 kPa
302.3 K | 0.0168 kPa
303.2 K | 0.0176 kPa and 0.0173 kPa
305.3 K | 0.0211 kPa
308.2 K | 0.0259 kPa [middle of 4 runs]
308.3 K | 0.0267 kPa
311.4 K | 0.0335 kPa
313.2 K | 0.037 kPa and 0.0363 kPa and 0.0361 kPa
314.3 K | 0.0414 kPa
317.2 K | 0.0498 kPa
318.1 K | 0.0516 kPa
318.2 K | 0.0535 kPa and 0.0524 kPa
320.2 K | 0.0607 kPa
323.1 K | 0.0743 kPa and 0.0718 kPa
323.2 K | 0.0732 kPa and 0.0749 kPa
328.1 K | 0.103 kPa
333.1 K | 0.138 kPa
338 K | 0.187 kPa
